Measurements: US5945433A, “Quinoline derivatives containing a diol as leukotriene antagonists” (Leo Pharmaceutical Products, Ltd. A/S, priority 1995, dated 1999)
“And” between values parts separate entries of the source, which are not always exact repeats. Identical values can stand only once. Like-named read-outs stand apart in the source and are kept apart here.

Columns and labels:
LTD4 receptor = molecular target: T1, LTD4 receptor (Cavia porcellus, UniProt Q2NNR5); experiment: Receptor binding: direct competition with [^3 H]LTD4 on guinea-pig lung membranes; settings: mean ± SD (n) or individual values
T1 construct: from tissue; host or cells: guinea-pig lung membranes
T1 sequence (Q2NNR5 1-340): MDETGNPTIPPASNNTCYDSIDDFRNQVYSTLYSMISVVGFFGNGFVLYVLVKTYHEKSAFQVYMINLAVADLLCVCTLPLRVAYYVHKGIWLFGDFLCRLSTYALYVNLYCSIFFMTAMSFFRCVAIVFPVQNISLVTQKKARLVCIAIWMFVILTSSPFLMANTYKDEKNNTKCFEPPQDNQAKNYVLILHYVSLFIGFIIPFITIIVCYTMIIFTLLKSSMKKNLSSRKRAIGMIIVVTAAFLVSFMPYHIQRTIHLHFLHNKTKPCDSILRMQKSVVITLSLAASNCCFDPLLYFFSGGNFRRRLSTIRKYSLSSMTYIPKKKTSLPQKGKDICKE
Experimental: It is of importance to investigate the receptor binding properties of leukotriene antagonists in relation to their inhibition of smooth muscle contraction. Receptor binding studies may be performed with guinea-pig lung membranes in a direct competition assay between a leukotrien antagonist and [^3 H]LTD4 for binding to the LTD4 receptor^3,4. A pIC50 value is determined as the negative logarithm of the molar concentration of antagonist inhibiting [^3 H]LTD4 binding by 50%. The pIC50 values for the compounds of the present invention are equal to or higher than those for the reference compound SR3040^5 (see Table I)

[1] = system: LTD4-induced bronchoconstriction; experiment: LTD4-induced bronchoconstriction in anaesthetized guinea-pigs; type: in vivo, guinea-pig; settings: Cavia porcellus
Experimental: The leukotriene antagonistic effect was tested in vivo on LTD4 -induced bronchoconstriction in anaesthetized guinea-pigs^3. […] The ED50 values represent the dose inhibiting the leukotriene induced bronchoconstriction by 50%. The ED50 values were calculated by regression analysis of 2-3 doses.

[2] = absence of albumin, read-out: pIC50, binding of [^3 H]LTD4, absence of albumin (converted)
[3] = presence of 0.1% human serum albumin, read-out: pIC50, binding of [^3 H]LTD4, presence of albumin (converted)
[4] = iv, 10 min, i.v., 10 min before bronchoconstriction
[5] = po, 4 h before bronchoconstriction
[6] = po, 24 h before bronchoconstriction
[7] = po, 48 h before bronchoconstriction

| IC50 (LTD4 receptor; [2]) | IC50 (LTD4 receptor; [3]) | Compound | ED50 [1, 4] | ED50 [1, 5] | ED50 [1, 6] | ED50 [1, 7] | ED50 ([1]; po, 72 h before bronchoconstriction) |
| --- | --- | --- | --- | --- | --- | --- | --- |
| 5.01 nM and 6.31 nM | 3.98 nM and 2.51 nM | OC[C@H](O)[C@H](Nc1cccc(/C=C/c2ccc3ccc(Cl)cc3n2)c1)c1ccccc1 [Example 3] | 0.3 mg/kg | 0.956 mg/kg | 20.3 mg/kg |  |  |
| 1.58 nM | 0.794 nM | OC[C@H](O)[C@H](Nc1cccc(/C=C/c2ccc3cc(F)c(F)cc3n2)c1)c1ccccc1 [Example 7, (+)-2R,3R-E-3-N-[3-2-(6,7-difluoroquinolin-2-yl)ethenyl]-phenylamino-3-phenyl-1,2-propandiol] | 0.058 mg/kg | 1.64 mg/kg | 4.64 mg/kg | 9.73 mg/kg | > 30 mg/kg |
| 3.98 nM | 1.26 nM and 2 nM | OC[C@@H](O)[C@@H](Nc1cccc(/C=C/c2ccc3ccc(Cl)cc3n2)c1)c1ccccc1 [Example 4] | 0.35 mg/kg | 3.63 mg/kg | 8.66 mg/kg | > 30 mg/kg |  |
| 1 nM | 0.501 nM | OC[C@@H](O)[C@@H](Nc1cccc(/C=C/c2ccc3cc(F)c(F)cc3n2)c1)c1ccccc1 [Example 8] | 0.18 mg/kg |  | 14.9 mg/kg | > 30 mg/kg |  |
| 3.98 nM | 2.51 nM | OC[C@H](O)[C@H](Nc1cccc(/C=C/c2ccc3ccc(F)cc3n2)c1)c1ccccc1 [Example 5] |  |  |  |  |  |
| 1.58 nM | 1.58 nM | OC[C@@H](O)[C@@H](Nc1cccc(/C=C/c2ccc3ccc(F)cc3n2)c1)c1ccccc1 [Example 6] |  |  |  |  |  |
